Experimental data published in patent publication US20090215813A1, “HISTONE DEACETYLASE INHIBITORS AS IMMUNOSUPPRESSANTS” (priority 2003, published 2009).

Legend:
[1] = tested on: heart graft, strain combination Lewis and BN; assay: Rat heart transplantation, graft survival and histology; type: in vivo; conditions: for effect of co-administration: test not named
From the text: Rat Heart Transplantation
The strain combination used is Male Lewis (RT1 haplotype) and BN (RT1 haplotype). The animals are anaesthetized using inhalation isofluorane. […] The aorta is ligated and divided distal to the first branch and the brachiocephalic trunk is divided at the first bifurcation. The left pulmonary artery is ligated and divided and the right side divided but left open. All other vessels are dissected free, ligated and divided and the donor heart is removed into iced saline.
The recipient is prepared by dissection and cross-clamping of the infra-renal abdominal aorta and vena cava. The graft is implanted with end-to-side anastomoses, using 10/0 monofilament suture, between the donor brachiocephalic trunk and the recipient aorta and the donor right pulmonary artery to the recipient vena cava. The clamps are removed, the graft tethered retroabdominally, the abdominal contents washed with warm saline and the animal is closed and allowed to recover under a heating lamp. Animals are treated with saline (control); an HDAI compound e.g. a compound of formula (I), e.g. N-hydroxy-3-[4-[[[2-(2-methyl-1H-indol-3-yl)-ethyl]-amino]methyl]phenyl]-2E-2-propenamide (“compound P1”); 40-O-(2-hydroxyethyl)-rapamycin (“compound P2”) prepared according to the methods described in WO 94/09010; FTY720 (“compound P3”) prepared according to Example 28 of WO 94/08943, or combinations of the each as indicated. Graft survival is monitored by daily palpation of the beating donor heart through the abdominal wall. Rejection is considered to be complete when heart beat stops. At that point the animal is euthanized and the transplanted heart is fixed for histology. […] The scale for grading for acute rejection is 1=slight; 2=moderate; 3=marked; 4=severe.

[2] = tested on: spleen cells from CBA and BALB/c mice; assay: Allogeneic two-way mixed lymphocyte reaction (MLR); type: cell-based; conditions: two-way mouse MLR, 3H-thymidine incorporation after four days, read-out: IC50 value (concentration required for 50% inhibition of proliferation)
Experimental: Cellular Assay: Allogeneic Mixed Lymphocyte Reaction (MLR)
The two-way MLR is performed according to standard procedures (J. Immunol. Methods, 1973, 2, 279 and Meo T. et al., Immunological Methods, New York, Academic Press, 1979, 227-39). Briefly, spleen cells from CBA and BALB/c mice (1.6×10^5 cells from each strain per well in flat bottom tissue culture microtiter plates, 3.2×10^5 in total) are incubated in RPMI medium containing 10% FCS, 100 U/ml penicillin, 100 μg/ml streptomycin (Gibco BRL, Basel, Switzerland), 50 μM 2-mercaptoethanol (Fluka, Buchs, Switzerland) and serially diluted compounds. Seven three-fold dilution steps in duplicates per test compound are performed. After four days of incubation 1 μCi ^3H-thymidine is added. Cells are harvested after an additional five-hour incubation period, and incorporated ^3H-thymidine is determined according to standard procedures. Background values (low control) of the MLR are the proliferation of BALB/c cells alone. Low controls are subtracted from all values. High controls without any sample are taken as 100% proliferation. Percent inhibition by the samples is calculated, and the concentrations required for 50% inhibition (IC50 values) are determined. In this assay, the agents of the invention have IC50 values in the range of 1 nM to 10 μM, preferably from 1 nM to 500 nM.

[3] = tested on: Balb/c (H-2d) heart graft in C57BL/6J (H-2b) recipients; assay: Acute rejection, heterotopic heart transplantation, graft survival; type: in vivo, mice; conditions: versus saline, across dosing schedules
Experimental: Balb/c (H-2^d) mice are used as donor animals, and e.g. C57BL/6J (H-2^b) mice as recipients. The heart is removed from the donors according to known procedures and stored in cold saline (4° C.). The recipient animals are anaesthetised with isofluorane. […] Blood vessels are dissected free from the fascia for a length of 3-5 mm, ligating and dividing any small branches. Vessels are occluded, first proximally and then distally. An arteriotomy and venotomy is performed, and lumens are flushed with heparinised physiological saline. […] The distal ligature is removed, then the proximal ligature. The suture lines are checked for leakage. Then the graft is tethered retroabdobminally. The abdomen is flooded with warm saline (37° C.) and the wound is closed. Graft function is monitored daily by palpation of the abdomen. Rejection is concluded when the graft stops beating. Animals are treated with a 100 μL subcutaneous injection of saline or a solution of a HDAI, e.g. the compound of formula (I), e.g. N-hydroxy-3-[4-[[[2-(2-methyl-1H-indol-3-yl)-ethyl]-amino]methyl]phenyl]-2E-2-propenamide in lactate buffer pH 5.5 according to the dosing schedule shown in Table 1 below: […]

CO[C@H]1C[C@@H]2CC[C@@H](C)[C@@](O)(O2)C(=O)C(=O)N2CCCC[C@H]2C(=O)O[C@H]([C@H](C)C[C@@H]2CC[C@@H](OCCO)[C@H](OC)C2)CC(=O)[C@H](C)/C=C(\C)[C@@H](O)[C@@H](OC)C(=O)[C@H](C)C[C@H](C)/C=C/C=C/C=C/1C [Compound P2, 40-O-(2-hydroxyethyl)-rapamycin, reference compound]
Median survival time (MST) ([1]; 0.3 mg/kg/d p.o., rat): 7

Cc1[nH]c2ccccc2c1CCNCc1ccc(/C=C/C(=O)NO)cc1 [Compound P1, N-hydroxy-3-[4-[[[2-(2-methyl-1H-indol-3-yl)-ethyl]-amino]methyl]phenyl]-2E-2-propenamide]
Median survival time (MST) ([1]; 0.3 mg/kg/d s.c., rat): 6 | Median survival time (MST) ([1]; 1.0 mg/kg/d s.c., rat): >28 | Survival (days) for each individual graft ([1]; 1.0 mg/kg/d s.c., rat): >28, >28, >28 days | effect of co-administration ([1]; co-administered with a mTOR inhibitor, e.g. 40-O-(2-hydroxyethyl)-rapamycin): synergistic effect | effect of co-administration ([1]; co-administered with a sphingosine 1-phosphate receptor agonist): synergistic effect | IC50 [2]: 9 nM | increases graft survival [3]: 2-5 times the number of days

CCCCCCCCc1ccc(CCC(N)(CO)CO)cc1 [Compound P3, FTY720, reference compound]
Median survival time (MST) ([1]; 0.1 mg/kg/d p.o., rat): 7.5
